Read-outs that look alike come from different tables or passages of the source.
Tests used:
[1] = tested on: PC-9 cells (EGFR Ex19Del); assay: Potency Assay: pERK (SOS1 pERK IC50 Assay, AlphaLISA SureFire Ultra p-ERK1/2); format: cell-based; conditions: Homo sapiens, read-out: SOS1 pERK IC50
Procedure, shortened: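 PC-9 (EGFR Ex19Del) cells plated overnight, then treated 1 h at 37° C. with 10-point 3-fold dilutions (top 10 μM final) in duplicate. Lysate pERK1/2 measured by AlphaLISA SureFire Ultra; IC50 from 4-parameter sigmoidal fit.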

[2] = target: T1, SOS1 catalytic domain (residues 564-1049) (Homo sapiens, UniProt Q07889); assay: Mode of Action Assay: inhibition of SOS1 nucleotide exchange activity (SOS1 TR-FRET IC50 Assay)
T1 sequence (Q07889 564-1049): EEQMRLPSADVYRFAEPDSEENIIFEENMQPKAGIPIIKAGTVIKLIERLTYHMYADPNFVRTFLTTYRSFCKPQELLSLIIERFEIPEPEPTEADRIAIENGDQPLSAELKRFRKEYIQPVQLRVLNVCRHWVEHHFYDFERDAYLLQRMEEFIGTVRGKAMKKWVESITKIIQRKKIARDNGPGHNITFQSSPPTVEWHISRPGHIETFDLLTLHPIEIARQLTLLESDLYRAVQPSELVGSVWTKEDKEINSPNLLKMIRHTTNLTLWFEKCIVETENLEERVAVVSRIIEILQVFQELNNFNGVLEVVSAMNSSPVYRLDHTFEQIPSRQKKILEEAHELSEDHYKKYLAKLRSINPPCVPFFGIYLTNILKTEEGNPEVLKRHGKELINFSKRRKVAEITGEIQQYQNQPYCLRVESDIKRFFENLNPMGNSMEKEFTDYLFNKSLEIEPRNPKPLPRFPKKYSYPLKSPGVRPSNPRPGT

[3] = PC-9 cells (EGFR Ex19Del), 1 hour incubation, AlphaLISA p-ERK1/2

| SMILES | IC50 [1, 3] [nM] | IC50 [2] [nM] | IC50 ([1]; PC-9, 1 h) [nM] |
| --- | --- | --- | --- |
| C[C@@H](Nc1nc(Cl)nc2c1CN(C(=O)N1CCOCC1)C2)c1csc(C(F)F)c1F [Example 481, 2-chloro-N-[(1R)-1-[5-(difluoromethyl)-4-fluorothiophen-3-yl]ethyl]-6-(morpholine-4-carbonyl)-5H,6H,7H-pyrrolo[3,4-d]pyrimidin-4-amine] | – | > 1000 | > 1000 |
| CC(Nc1nc(Cl)nc2c1CN(C(=O)N1CCOCC1)C2)c1cccc(S(C)(=O)=O)c1 (stereo not drawn) [Example 497] | > 1000 | > 1000 | – |
| CC(CO)c1cccc(C(C)Nc2nc(Cl)nc3c2CN(C(=O)N2CCOCC2)C3)c1 (stereo not drawn) [Example 500, 2-[3-(1-{[2-Chloro-6-(morpholine-4-carbonyl)-5H,6H,7H-pyrrolo[3,4-d]pyrimidin-4-yl]amino}ethyl)phenyl]propan-1-ol] | > 1000 | < 1000 | – |
| CC(Nc1nc(Cl)nc2c1CN(C(=O)N1CCOCC1)C2)c1cccc(CCO)c1 (stereo not drawn) [Example 501, 2-[3-(1-{[2-chloro-6-(morpholine-4-carbonyl)-5H,6H,7H-pyrrolo[3,4-d]pyrimidin-4-yl]amino}ethyl)phenyl]ethan-1-ol] | > 1000 | < 1000 | – |
| C[C@@H](Nc1ncnc2c1CC(N1CCOCC1)C(=O)N2C)c1cc(N)cc(C(F)(F)F)c1 (stereo partly drawn) [Example 502, 4-{[(1R)-1-[3-amino-5-(trifluoromethyl)phenyl]ethyl]amino}-8-methyl-6-(morpholin-4-yl)-5H,6H,7H,8H-pyrido[2,3-d]pyrimidin-7-one] | > 1000 | < 1000 | – |
| CNCc1nc2c(c(N[C@H](C)c3cc(N)cc(C(F)(F)F)c3)n1)CN(C(=O)N1CCOCC1)C2 [Example 503, N-[(1R)-1-[3-amino-5-(trifluoro-methyl)phenyl]ethyl]-2-[(methylamino)methyl]-6-(morpholine-4-carbonyl)-5H,6H,7H-pyrrolo[3,4-d]-pyrimidin-4-amine] | > 1000 | < 1000 | – |
| C[C@@H](Nc1nc(CNC2COC2)nc2c1CN(C(=O)N1CCOCC1)C2)c1cccc(C(F)F)c1F [Example 509, N-[(1R)-1-[3-(difluoromethyl)-2-fluorophenyl]ethyl]-6-(morpholine-4-carbonyl)-2-{[(oxetan-3-yl)amino]methyl}-5H,6H,7H-pyrrolo-[3,4-d]pyrimidin-4-amine] | > 1000 | < 1000 | – |
| CC(O)c1cccc(C(C)Nc2ncnc3c2CN(C(=O)N2CCOCC2)C3)c1 (stereo not drawn) [Example 516] | > 1000 | > 1000 | – |
| CC(Nc1nc(Cl)nc2c1CN(C(=O)N1CCOCC1)C2)c1cccc(C2(F)CNC2)c1 (stereo not drawn) [Example 517, [2-chloro-4-[1-[3-(3-fluoroazetidin-3-yl)phenyl]ethylamino]-5,7-dihydropyrrolo[3,4-d]pyrimidin-6-yl]-morpholino-methanone] | – | < 1000 | > 1000 |
| C[C@@H](Nc1nc(Cl)nc2c1CN(C(=O)N1CCOCC1)C2)c1cccc(N2CC(O)C2)c1 [Example 518, [2-chloro-4-[[(1R)-1-[3-(3-hydroxyazetidin-1-yl)phenyl]ethyl]amino]-5,7-dihydropyrrolo[3,4-d]pyrimidin-6-yl]-morpholino-methanone] | > 1000 | < 1000 | – |
| C[C@@H](Nc1nc(Cl)nc2c1CN(C(=O)N1CCOCC1)C2)c1cccc(C(F)CO)c1 (stereo partly drawn) [Example 519, [2-chloro-4-[[(1R)-1-[3-(1-fluoro-2-hydroxy-ethyl)phenyl]ethyl]amino]-5,7-dihydropyrrolo[3,4-d]pyrimidin-6-yl]-morpholino-methanone] | > 1000 | < 1000 | – |
| C[C@@H](Nc1nc(Cl)nc2c1CN(C(=O)N1CCOCC1)C2)c1cccc(NC2CC2)c1 [Example 520, 2-chloro-N-[(1R)-1-[3-(cyclopropylamino)phenyl]ethyl]-6-(morpholine-4-carbonyl)-5H,6H,7H-pyrrolo[3,4-d]pyrimidin-4-amine] | – | > 1000 | > 1000 |
| CC(Nc1nc(Cl)nc2c1CN(C(=O)N1CCOCC1)C2)c1nccc(C(F)F)c1F (stereo not drawn) [Example 521, 2-chloro-N-{1-[4-(difluoromethyl)-3-fluoropyridin-2-yl]ethyl}-6-(morpholine-4-carbonyl)-5H,6H,7H-pyrrolo[3,4-d]pyrimidin-4-amine] | – | > 1000 | > 1000 |
| C[C@@H](Nc1nc(Cl)nc2c1CN(C(=O)N1CCOCC1)C2)c1cccc(C(F)(F)OC2CC2)c1 [Example 524, 2-chloro-N-[(1R)-1-[3-(cyclopropoxydifluoromethyl)phenyl]ethyl]-6-(morpholine-4-carbonyl)-5H,6H,7H-pyrrolo[3,4-d]pyrimidin-4-amine] | > 1000 | < 1000 | – |
| C[C@@H](Nc1nc(Cl)nc2c1CN(C(=O)N1CCOCC1)C2)c1cccc(C(F)(F)COC2CC2)c1 [Example 531, [2-chloro-4-[[(1R)-1-[3-[2-(cyclopropoxy)-1,1-difluoro-ethyl]phenyl]ethyl]amino]-5,7-dihydropyrrolo[3,4-d]pyrimidin-6-yl]-morpholino-methanone] | – | < 1000 | < 1000 |

Further lines, with some results ahead:

| IC50 [1, 3] [nM] | IC50 [2] [nM] | SMILES | IC50 ([1]; PC-9, 1 h) [nM] |
| --- | --- | --- | --- |
| > 1000 | > 1000 | C[C@@H](Nc1nc(Cl)nc2c1CN(C(=O)N1CCOCC1)C2)c1cccc(C(F)(F)F)n1 [Example 473, 2-chloro-6-(morpholine-4-carbonyl)-N-[(1R)-1-[6-(trifluoromethyl)pyridin-2-yl]ethyl]-5H,6H,7H-pyrrolo[3,4-d]pyrimidin-4-amine] | – |
| > 1000 | > 1000 | C[C@@H](Nc1nc(Cl)nc2c1CN(C(=O)N1CCOCC1)C2)c1cnc(C(F)(F)F)s1 [Example 474, 2-chloro-6-(morpholine-4-carbonyl)-N-[(1R)-1-[2-(trifluoromethyl)-1,3-thiazol-5-yl]ethyl]-5H,6H,7H-pyrrolo[3,4-d]pyrimidin-4-amine] | – |
| > 1000 | > 1000 | COC(F)(F)c1cccc([C@@H](C)Nc2nc(Cl)nc3c2CN(C(=O)N2CCOCC2)C3)c1 [Example 475, 2-chloro-N-[(1R)-1-{3-[difluoro(methoxy)methyl]phenyl}ethyl]-6-(morpholine-4-carbonyl)-5H,6H,7H-pyrrolo[3,4-d]pyrimidin-4-amine] | – |
| > 1000 | > 1000 | C[C@@H](Nc1nc(Cl)nc2c1CN(C(=O)N1CCOCC1)C2)c1cncc(C(F)(F)F)c1 [Example 480, 2-chloro-6-(morpholine-4-carbonyl)-N-[(1R)-1-[5-(trifluoromethyl)pyridin-3-yl]ethyl]-5H,6H,7H-pyrrolo[3,4-d]pyrimidin-4-amine] | – |
| > 1000 | > 1000 | COc1c(C(F)F)cccc1C(C)Nc1nc(Cl)nc2c1CN(C(=O)N1CCOCC1)C2 (stereo not drawn) [Example 494] | – |
| > 1000 | > 1000 | C[C@@H](Nc1nc(Cl)nc2c1CN(C(=O)N1CCOCC1)C2)c1ccc2cc[nH]c2c1 [Example 495] | – |
| < 1000 | > 1000 | CC(Nc1nc(Cl)nc2c1CN(C(=O)N1CCOCC1)C2)c1cccc(C(F)(F)F)c1Cl (stereo not drawn) [Example 498] | – |
| < 1000 | > 1000 | Cc1c(C(C)Nc2nc(Cl)nc3c2CN(C(=O)N2CCOCC2)C3)cccc1C(F)(F)F (stereo not drawn) [Example 499] | – |
| < 1000 | < 1000 | CC(Nc1nc(Cl)nc2c1CN(C(=O)N1CCOCC1)C2)c1cccc(C(F)(F)CO)c1Cl (stereo not drawn) [Example 506, 2-[2-chloro-3-(1-{[2-chloro-6-(morpholine-4-carbonyl)-5H,6H,7H-pyrrolo[3,4-d]pyrimidin-4-yl]amino}ethyl)phenyl]-2,2-difluoro-ethan-1-ol] | – |

Source: patent publication US20230096028A1, “BICYCLIC HETEROCYCLYL COMPOUNDS AND USES THEREOF” (Revolution Medicines, Inc., priority 2019, published 2023)
